Assay results reported in ChEMBL document CHEMBL3421558, “Structure activity relationship of substituted 1,5-naphthyridine analogs of oxabicyclooctane-linked novel bacterial topoisomerase inhibitors as broad-spectrum antibacterial agents (Part-4)” (Bioorg Med Chem Lett, 2015).
Values after ≈ are worked out from the molar mass of the structure shown.

Test system: Pseudomonas aeruginosa
Assay: Antimicrobial activity against Pseudomonas aeruginosa PAO1 by micro broth dilution or agar based method
Format: functional
Details: not given

Row | SMILES | MIC [µg/mL]
1 | COc1ccc2ncc(C#N)c(CC(O)C34CCC(NCc5ccc6c(n5)NC(=O)CO6)(CC3)CO4)c2n1 (single isomer, unassigned; (-)) | 16 (≈ 31 µM)

Same assay, conditions: Pseudomonas aeruginosa, PAO1; read-out: MIC

Row | SMILES | MIC [µg/mL]
2 | O=C1COc2ccc(CNC34CCC(CCc5ccnc6cc(C(F)(F)F)cnc56)(CC3)OC4)nc2N1 | 64 (≈ 125 µM)
3 | COc1cnc2c(CCC34CCC(NCc5ccc6c(n5)NC(=O)CO6)(CC3)CO4)ccnc2c1 | 64 (≈ 135 µM)
4 | COc1ccc2ncc(O)c(CCC34CCC(NCc5ccc6c(n5)NC(=O)CO6)(CC3)CO4)c2n1 | 16 (≈ 32.6 µM)
5 | COc1cc(C)c2ncc(F)c(CCC34CCC(NCc5ccc6c(n5)NC(=O)CO6)(CC3)CO4)c2n1 | 16 (≈ 31.5 µM)
6 | N#Cc1ccc2ncc(F)c(CCC34CCC(NCc5ccc6c(n5)NC(=O)CO6)(CC3)CO4)c2n1 | 8 (≈ 16.4 µM)
7 | O=C1COc2ccc(CNC34CCC(CCc5c(F)cnc6cc(C(F)(F)F)cnc56)(CC3)OC4)nc2N1 | 16 (≈ 30.1 µM)

Test system: Acinetobacter baumannii
Assay: Antimicrobial activity against Acinetobacter baumannii IID876 by micro broth dilution or agar based method
Format: functional
Details: not given

Row | SMILES | MIC [µg/mL]
8 | COc1ccc2ncc(C#N)c(CC(O)C34CCC(NCc5ccc6c(n5)NC(=O)CO6)(CC3)CO4)c2n1 (single isomer, unassigned; (-)) | 1 (≈ 1.94 µM)

Same assay, conditions: Acinetobacter baumannii, IID876; read-out: MIC

Row | SMILES | MIC [µg/mL]
9 | O=C1COc2ccc(CNC34CCC(CCc5ccnc6cc(C(F)(F)F)cnc56)(CC3)OC4)nc2N1 | 64 (≈ 125 µM)
10 | COc1cnc2c(CCC34CCC(NCc5ccc6c(n5)NC(=O)CO6)(CC3)CO4)ccnc2c1 | 64 (≈ 135 µM)
11 | COc1ccc2ncc(O)c(CCC34CCC(NCc5ccc6c(n5)NC(=O)CO6)(CC3)CO4)c2n1 | 2 (≈ 4.07 µM)
12 | COc1cc(C)c2ncc(F)c(CCC34CCC(NCc5ccc6c(n5)NC(=O)CO6)(CC3)CO4)c2n1 | 2 (≈ 3.94 µM)
13 | N#Cc1ccc2ncc(F)c(CCC34CCC(NCc5ccc6c(n5)NC(=O)CO6)(CC3)CO4)c2n1 | 1 (≈ 2.05 µM)
14 | O=C1COc2ccc(CNC34CCC(CCc5c(F)cnc6cc(C(F)(F)F)cnc56)(CC3)OC4)nc2N1 | 16 (≈ 30.1 µM)

Test system: Streptococcus pneumoniae
Assay: Antimicrobial activity against Streptococcus pneumoniae IID553 by micro broth dilution or agar based method
Format: functional
Details: not given

Row | SMILES | MIC [µg/mL]
15 | COc1ccc2ncc(C#N)c(CC(O)C34CCC(NCc5ccc6c(n5)NC(=O)CO6)(CC3)CO4)c2n1 (single isomer, unassigned; (-)) | 0.25 (≈ 0.484 µM)

Same assay, conditions: Streptococcus pneumoniae, IID553; read-out: MIC

Row | SMILES | MIC [µg/mL]
16 | O=C1COc2ccc(CNC34CCC(CCc5ccnc6cc(C(F)(F)F)cnc56)(CC3)OC4)nc2N1 | 64 (≈ 125 µM)
17 | COc1cnc2c(CCC34CCC(NCc5ccc6c(n5)NC(=O)CO6)(CC3)CO4)ccnc2c1 | 64 (≈ 135 µM)
18 | COc1ccc2ncc(O)c(CCC34CCC(NCc5ccc6c(n5)NC(=O)CO6)(CC3)CO4)c2n1 | 0.5 (≈ 1.02 µM)
19 | COc1cc(C)c2ncc(F)c(CCC34CCC(NCc5ccc6c(n5)NC(=O)CO6)(CC3)CO4)c2n1 | 0.25 (≈ 0.493 µM)
20 | N#Cc1ccc2ncc(F)c(CCC34CCC(NCc5ccc6c(n5)NC(=O)CO6)(CC3)CO4)c2n1 | 1 (≈ 2.05 µM)
21 | O=C1COc2ccc(CNC34CCC(CCc5c(F)cnc6cc(C(F)(F)F)cnc56)(CC3)OC4)nc2N1 | 16 (≈ 30.1 µM)

Test system: Staphylococcus aureus
Assay: Antimicrobial activity against methicillin-resistant Staphylococcus aureus OIT971 by micro broth dilution or agar based method
Format: functional
Details: not given

Row | SMILES | MIC [µg/mL]
22 | O=C1COc2ccc(CNC34CCC(CCc5ccnc6cc(C(F)(F)F)cnc56)(CC3)OC4)nc2N1 | 64 (≈ 125 µM)
23 | COc1cnc2c(CCC34CCC(NCc5ccc6c(n5)NC(=O)CO6)(CC3)CO4)ccnc2c1 | 8 (≈ 16.8 µM)
24 | COc1ccc2ncc(O)c(CCC34CCC(NCc5ccc6c(n5)NC(=O)CO6)(CC3)CO4)c2n1 | 0.031 (≈ 0.0631 µM)
25 | COc1cc(C)c2ncc(F)c(CCC34CCC(NCc5ccc6c(n5)NC(=O)CO6)(CC3)CO4)c2n1 | 0.008 (≈ 0.0158 µM)
26 | N#Cc1ccc2ncc(F)c(CCC34CCC(NCc5ccc6c(n5)NC(=O)CO6)(CC3)CO4)c2n1 | 0.063 (≈ 0.129 µM)
27 | O=C1COc2ccc(CNC34CCC(CCc5c(F)cnc6cc(C(F)(F)F)cnc56)(CC3)OC4)nc2N1 | 16 (≈ 30.1 µM)

Test system: Escherichia coli
Assay: Antimicrobial activity against Escherichia coli ATCC 25922 by micro broth dilution or agar based method
Format: functional
Details: not given

Row | SMILES | MIC [µg/mL]
28 | COc1ccc2ncc(C#N)c(CC(O)C34CCC(NCc5ccc6c(n5)NC(=O)CO6)(CC3)CO4)c2n1 (single isomer, unassigned; (-)) | 4 (≈ 7.74 µM)

Same assay, conditions: Escherichia coli, ATCC 25922; read-out: MIC

Row | SMILES | MIC [µg/mL]
29 | O=C1COc2ccc(CNC34CCC(CCc5ccnc6cc(C(F)(F)F)cnc56)(CC3)OC4)nc2N1 | 64 (≈ 125 µM)
30 | COc1cnc2c(CCC34CCC(NCc5ccc6c(n5)NC(=O)CO6)(CC3)CO4)ccnc2c1 | 64 (≈ 135 µM)
31 | COc1ccc2ncc(O)c(CCC34CCC(NCc5ccc6c(n5)NC(=O)CO6)(CC3)CO4)c2n1 | 4 (≈ 8.14 µM)
32 | COc1cc(C)c2ncc(F)c(CCC34CCC(NCc5ccc6c(n5)NC(=O)CO6)(CC3)CO4)c2n1 | 4 (≈ 7.88 µM)
33 | N#Cc1ccc2ncc(F)c(CCC34CCC(NCc5ccc6c(n5)NC(=O)CO6)(CC3)CO4)c2n1 | 2 (≈ 4.09 µM)
34 | O=C1COc2ccc(CNC34CCC(CCc5c(F)cnc6cc(C(F)(F)F)cnc56)(CC3)OC4)nc2N1 | 16 (≈ 30.1 µM)

Test system: Staphylococcus aureus
Assay: Antimicrobial activity against Staphylococcus aureus Smith by micro broth dilution or agar based method
Format: functional
Details: not given

Row | SMILES | MIC [µg/mL]
35 | COc1ccc2ncc(C#N)c(CC(O)C34CCC(NCc5ccc6c(n5)NC(=O)CO6)(CC3)CO4)c2n1 (single isomer, unassigned; (-)) | 0.063 (≈ 0.122 µM)

Same assay, conditions: Staphylococcus aureus, Smith; read-out: MIC

Row | SMILES | MIC [µg/mL]
36 | O=C1COc2ccc(CNC34CCC(CCc5ccnc6cc(C(F)(F)F)cnc56)(CC3)OC4)nc2N1 | 64 (≈ 125 µM)
37 | COc1cnc2c(CCC34CCC(NCc5ccc6c(n5)NC(=O)CO6)(CC3)CO4)ccnc2c1 | 32 (≈ 67.3 µM)
38 | COc1ccc2ncc(O)c(CCC34CCC(NCc5ccc6c(n5)NC(=O)CO6)(CC3)CO4)c2n1 | 0.031 (≈ 0.0631 µM)
39 | COc1cc(C)c2ncc(F)c(CCC34CCC(NCc5ccc6c(n5)NC(=O)CO6)(CC3)CO4)c2n1 | 0.016 (≈ 0.0315 µM)
40 | N#Cc1ccc2ncc(F)c(CCC34CCC(NCc5ccc6c(n5)NC(=O)CO6)(CC3)CO4)c2n1 | 0.063 (≈ 0.129 µM)
41 | O=C1COc2ccc(CNC34CCC(CCc5c(F)cnc6cc(C(F)(F)F)cnc56)(CC3)OC4)nc2N1 | 16 (≈ 30.1 µM)

Test system: Enterococcus faecium
Assay: Antimicrobial activity against VanA expressing vancomycin-resistant Enterococcus faecium by micro broth dilution or agar based method
Format: functional
Details: not given

Row | SMILES | MIC [µg/mL]
42 | COc1ccc2ncc(C#N)c(CC(O)C34CCC(NCc5ccc6c(n5)NC(=O)CO6)(CC3)CO4)c2n1 (single isomer, unassigned; (-)) | 2 (≈ 3.87 µM)

Same assay, conditions: Enterococcus faecium; read-out: MIC

Row | SMILES | MIC [µg/mL]
43 | O=C1COc2ccc(CNC34CCC(CCc5ccnc6cc(C(F)(F)F)cnc56)(CC3)OC4)nc2N1 | 64 (≈ 125 µM)
44 | COc1cnc2c(CCC34CCC(NCc5ccc6c(n5)NC(=O)CO6)(CC3)CO4)ccnc2c1 | 64 (≈ 135 µM)
45 | COc1ccc2ncc(O)c(CCC34CCC(NCc5ccc6c(n5)NC(=O)CO6)(CC3)CO4)c2n1 | 2 (≈ 4.07 µM)
46 | COc1cc(C)c2ncc(F)c(CCC34CCC(NCc5ccc6c(n5)NC(=O)CO6)(CC3)CO4)c2n1 | 2 (≈ 3.94 µM)
47 | N#Cc1ccc2ncc(F)c(CCC34CCC(NCc5ccc6c(n5)NC(=O)CO6)(CC3)CO4)c2n1 | 2 (≈ 4.09 µM)
48 | O=C1COc2ccc(CNC34CCC(CCc5c(F)cnc6cc(C(F)(F)F)cnc56)(CC3)OC4)nc2N1 | 16 (≈ 30.1 µM)
